In PMC9293909 (Nature Communications, 2022):
Values joined by “and” are separate entries in the source; they are usually repeats but may differ in a detail not shown here. Equal values may be shown once. Read-outs that look alike come from different tables or passages of the source. Each block holds one molecule with its values, some of them ahead of it.

How the values were obtained:
rA2AR [1] = molecular target: T1, rA2AR (Rattus norvegicus, UniProt P30543); experiment: NanoBRET competition binding with CA200645
T1 construct: expressed in transfected cells
T1 sequence (P30543 whole entry): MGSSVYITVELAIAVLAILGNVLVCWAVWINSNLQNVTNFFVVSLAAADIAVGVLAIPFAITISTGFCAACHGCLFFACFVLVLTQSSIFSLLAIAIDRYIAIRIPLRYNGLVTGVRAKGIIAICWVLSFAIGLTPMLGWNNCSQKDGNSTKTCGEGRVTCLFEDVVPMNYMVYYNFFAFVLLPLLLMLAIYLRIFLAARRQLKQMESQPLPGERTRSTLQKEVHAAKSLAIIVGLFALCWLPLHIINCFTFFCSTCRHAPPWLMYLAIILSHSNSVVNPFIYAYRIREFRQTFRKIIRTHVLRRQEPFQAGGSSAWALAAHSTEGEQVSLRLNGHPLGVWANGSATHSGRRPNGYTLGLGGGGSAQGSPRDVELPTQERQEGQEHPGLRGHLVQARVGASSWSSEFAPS
Method: The data was fitted with the ‘one-site – Ki model’ derived from the Cheng and Prusoff equation, built into Prism to determine affinity (pKi) values for all unlabelled agonists at all AR subtypes assayed. […] Here data was fitted with the ‘two-site Ki model’, build into Prism to determine high affinity and low affinity values for the unlabelled agonists. […] BRET was measured following the addition of the Nluc substrate, Furimazine (0.1 μM). Non-specific binding was determined using a high concentration of unlabelled antagonist, DPCPX for rA1R, ZM241385 for the rA2AR and MRS1220 for rA3R.

[2] = tested on: postsynaptic A1Rs, CA1 pyramidal cells; experiment: Whole-cell patch-clamp, membrane potential of CA1 pyramidal cells; format: cell-based, rat
Method: Rats were kept on a 12-hour light-dark cycle with slices made 90 min after entering the light cycle. […] The brain was removed, cut down the midline and the two sides of the brain stuck down to a metal base plate using cyanoacrylate glue. […] Slices were stored at 34 °C for 1–6 h in aCSF (1 mM MgCl2, 2 mM CaCl2) before use.
A slice was transferred to the recording chamber and perfused at 3 ml min^−1 with aCSF at 32 ± 0.5 °C. Slices were visualised using IR-DIC optics with an Olympus BX151W microscope (Scientifica) and a CCD camera (Hitachi). […] Voltage and current recordings were obtained using an Axon Multiclamp 700B amplifier (Molecular Devices, USA) and digitised at 20 KHz. Data acquisition and analysis was performed using pClamp 10 (Molecular Devices, USA). For voltage-clamp experiments, CA1 pyramidal cells were held at −60 mV. Peptides to interfere with G protein signalling were introduced via the patch pipette into the recorded cell.

hA1R = molecular target: T2, hA1R (Homo sapiens, UniProt P30542); experiment: Radioligand displacement of [3H]-DPCPX, CHO-K1-hA1R membranes; format: binding; set-up: expressed in transfected cells; [3H]DPCPX binding, agonist displacement (Fig. 1bii): unit not given here; conditions: for [3H]DPCPX binding, agonist displacement (Fig. 1bii): individual repeats and mean
T2 sequence (P30542 1-326): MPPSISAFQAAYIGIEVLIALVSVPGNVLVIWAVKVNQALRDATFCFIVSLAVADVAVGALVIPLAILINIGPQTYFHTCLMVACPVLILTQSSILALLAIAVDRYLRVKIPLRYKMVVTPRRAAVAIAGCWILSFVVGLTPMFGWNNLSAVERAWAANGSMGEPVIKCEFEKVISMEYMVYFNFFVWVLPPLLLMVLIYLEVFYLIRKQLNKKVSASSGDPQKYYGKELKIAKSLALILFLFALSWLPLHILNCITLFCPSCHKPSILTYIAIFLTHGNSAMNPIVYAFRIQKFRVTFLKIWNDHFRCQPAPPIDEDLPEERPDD
Method: Radioligand displacement assays were conducted using crude membrane preparations (100 μg protein per tube) acquired from homogenisation of CHO-K1-hA1R cells in ice-cold buffer (2 mM MgCl2, 20 mM HEPES, pH 7.4). […] Non-specific binding was determined in the presence of 10 μM DPCPX. Membrane incubations were conducted in Sterilin™ scintillation vials (Thermo Fisher Scientific; Wilmington, Massachusetts, USA) for 60 min at room temperature. Free radioligand was separated from bound radioligand by filtration through Whatman® glass microfiber GF/B 25 mm filters (Sigma-Aldrich). Each filter was then placed in a Sterilin™ scintillation vial and radioactivity determined by: addition of 4 mL of Ultima Gold XR liquid scintillant (PerkinElmer), overnight incubation at room temperature and the retained radioactivity determined using a Beckman Coulter LS 6500 Multi-purpose scintillation counter (Beckman Coulter Inc.; Indiana, USA).
Radioligand displacement curves were fitted to the one-site competition binding equation yielding log(Ki) values.

hA3R = molecular target: T3, hA3R (Homo sapiens, UniProt P0DMS8); experiment: Binding affinity at hA3R (Supplementary Table 1); conditions: tracer not given (footnote d); read-out: pKi hA3R (converted)
T3 construct: expressed in transfected cells; host or cells: CHO-K1
T3 sequence (P0DMS8 1-318): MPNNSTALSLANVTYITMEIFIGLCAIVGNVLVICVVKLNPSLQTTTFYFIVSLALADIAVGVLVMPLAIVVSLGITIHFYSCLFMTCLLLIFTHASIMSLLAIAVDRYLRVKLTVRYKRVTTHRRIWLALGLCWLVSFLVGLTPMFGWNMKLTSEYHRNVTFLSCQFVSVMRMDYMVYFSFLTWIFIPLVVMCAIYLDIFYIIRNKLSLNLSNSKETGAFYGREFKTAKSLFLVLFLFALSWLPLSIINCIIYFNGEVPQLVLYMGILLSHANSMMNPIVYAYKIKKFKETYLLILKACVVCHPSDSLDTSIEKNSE

rA2AR [3] = molecular target: T1, rA2AR; experiment: cAMP accumulation in CHO-K1-rA2AR cells; format: cell-based
hA1R:Goa = molecular target: T4, hA1R:Goa (Homo sapiens, UniProt P30542); experiment: cAMP inhibition in PTX-treated CHO-K1-hA1R cells with PTX-insensitive Goa (incl. Schild analysis, bias); format: cell-based; conditions: for Emax: inhibition of forskolin-stimulated cAMP; for Bias factor (Δ(τ/KA)) Goa: relative to adenosine, operational model
T4 construct: host or cells: CHO-K1-hA1R (made in-house), PTX-treated
T4 sequence (P30542 1-326): T2 sequence (P30542 1-326)
Method: Cells were then incubated for 24 h before addition of 100 ng/ml PTX, to inhibit activity of endogenous Gαi/o, and then incubated for a further 16-18 h. Transfected cells were then assayed as per cAMP inhibition experiments, but co-stimulated with agonist and 100 nM forskolin.
Statistical significance was tested as indicated in the text using paired or unpaired two-tailed t-tests or one-way or two-way ANOVAs with repeated measures (RM) as appropriate. Bonferroni corrections for multiple comparisons were performed. All in vitro cell signalling assay data was analysed using Prism 8.4 (Graphpad software, San Diego, CA), with all concentration-response curves being fitted using a 3 parameter logistic equation to calculate response range and IC50. All cAMP data was normalised to a forskolin concentration-response curve ran in parallel to each assay.

Structure (SMILES): OC[C@H]1O[C@@H](n2cnc3c(NC4CCCC4)ncnc32)[C@H](O)[C@@H]1O [CPA, N^6-Cyclopentyladenosine]
Ki (rA2AR [1]): > 100000 nM | membrane hyperpolarisation ([2]; CPA 300 nM in the presence of BnOCPA 300 nM): 2.75 ± 0.48 mV | [3H]DPCPX binding, agonist displacement (Fig. 1bii) (hA1R; Log [Agonist] -4 (printed 100 nM), individual repeat): 20.2642 and 4.4733 and -15.7273 and -5.192 and 4.0456 | [3H]DPCPX binding, agonist displacement (Fig. 1bii) (hA1R; Log [Agonist] -4 (printed 100 nM), mean): 1.6 | [3H]DPCPX binding, agonist displacement (Fig. 1bii) (hA1R; Log [Agonist] -5 (10 nM [sic]), individual repeat): 11.1387 and 7.285 and -0.8835 and -5.9519 and 7.949 | [3H]DPCPX binding, agonist displacement (Fig. 1bii) (hA1R; Log [Agonist] -5 (10 nM [sic]), mean): 3.9 | [3H]DPCPX binding, agonist displacement (Fig. 1bii) (hA1R; Log [Agonist] -6): 33.4844 and 35.0135 and 37.1916 and 34.6828 and 36.5376 | [3H]DPCPX binding, agonist displacement (Fig. 1bii) (hA1R; Log [Agonist] -6, mean): 35.4 | [3H]DPCPX binding, agonist displacement (Fig. 1bii) (hA1R; Log [Agonist] -7 (0.1 nM [sic])): 68.5034 and 65.597 and 37.2069 and 75.7359 and 85.6552 | [3H]DPCPX binding, agonist displacement (Fig. 1bii) (hA1R; Log [Agonist] -7 (0.1 nM [sic]), mean): 66.5 | [3H]DPCPX binding, agonist displacement (Fig. 1bii) (hA1R; Log [Agonist] -8 (0.01 nM [sic])): 82.5188 and 76.3158 and 97.3862 and 99.1923 and 79.3577 | [3H]DPCPX binding, agonist displacement (Fig. 1bii) (hA1R; Log [Agonist] -8 (0.01 nM [sic]), mean): 87.0 | [3H]DPCPX binding, agonist displacement (Fig. 1bii) (hA1R; Log [Agonist] -9 (0.001 nM [sic])): 135.427 and 110.895 and 123.979 and 110.925 and 95.1958 | [3H]DPCPX binding, agonist displacement (Fig. 1bii) (hA1R; Log [Agonist] -9 (0.001 nM [sic]), mean): 115.3 | Ki (hA3R): > 100000 nM | EC50 (rA2AR [3]): 2820 nM | Range rA2AR (rA2AR [3]): 39.45 ± 3.47% | Emax (hA1R:Goa): -13.7% | Bias factor (Δ(τ/KA)) Goa (hA1R:Goa): 0.6126

Ki (rA2AR [1]; displacement of CA200645, read-out: pKi rA2AR (converted)): 13800 nM | Ki (hA1R; displacement of [3H]-DPCPX, CHO-K1-hA1R, read-out: pKi hA1R (converted)): 1550 nM | Ki (hA3R): 589 nM | EC50 (rA2AR [3]; half-maximal response, cAMP, read-out: pEC50 rA2AR (converted)): 2040 nM | Range rA2AR (rA2AR [3]; range of response as percentage of response to 10 μM forskolin): 48.61 ± 6.42% | EC50 (hA1R:Goa): 339 nM | Emax (hA1R:Goa): -29.8% | Bias factor (Δ(τ/KA)) Goa (hA1R:Goa): 3.228
Structure (SMILES): OC[C@H]1O[C@@H](n2cnc3c(N[C@@H]4CCC[C@H]4O)ncnc32)[C@H](O)[C@@H]1O [HOCPA, (2 R,3 R,4 S,5 R)−2-(6-{[(1 R,2 R)−2-hydroxycyclopentyl]amino}−9H-purin-9-yl)−5-(hydroxymethyl)oxolane-3,4-diol]
membrane hyperpolarisation ([2]; HOCPA 300 nM): 5.3 ± 0.5 mV
